In PubChem BioAssay AID248 (DTP/NCI, 2004) one finds T/C data, which are given here for 20 molecules.

Where “and” joins values, the source holds several entries; their conditions need not be identical. Identical values can stand only once. Toxic doses and inconclusive results are not listed.

The experiment has as its system L1210 leukemia ip in BDF1 mice, survival T/C. The experiment is described as follows: NCI In Vivo Anticancer Drug Screen. Data for tumor model L1210 Leukemia (intraperitoneal) in B6D2F1 (BDF1) mice. To be noted: endpoint: mean survival time, higher = longer survival. The gist of the method:
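Tumor was transplanted into mice, which were then dosed with test compound or vehicle alone. Survival was recorded for each group, and the treated figure was expressed relative to the control figure.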

The mark [1] stands for this setting: dose: 100.0 mg/kg/injection, schedule: Q01DX009 (ip), vehicle: Klucel (hydroxypropylcellulose) (HPC).
The mark [2] stands for this setting: dose: 200.0 mg/kg/injection, schedule: Q01DX009 (ip), vehicle: Klucel (hydroxypropylcellulose) (HPC).
Setting [3] is: dose: 400.0 mg/kg/injection, schedule: Q01DX009 (ip), vehicle: Klucel (hydroxypropylcellulose) (HPC).
Setting [4] is: dose: 100.0 mg/kg/injection, schedule: Q04DX002 (ip), vehicle: saline with Tween-80.
Setting [5] is: dose: 200.0 mg/kg/injection, schedule: Q04DX002 (ip), vehicle: saline with Tween-80.
The mark [6] stands for this setting: dose: 400.0 mg/kg/injection, schedule: Q04DX002 (ip), vehicle: saline with Tween-80.
Setting [7] is: dose: 5.0 mg/kg/injection, schedule: Q01DX001 (ip), vehicle: carboxymethylcellulose (CMC).
Setting [8] is: dose: 100.0 mg/kg/injection, schedule: Q01DX009 (ip), vehicle: saline with Tween-80.
The mark [9] stands for this setting: dose: 100.0 mg/kg/injection, schedule: Q04DX003 (ip), vehicle: saline with Tween-80.
Where [10] appears, read: dose: 200.0 mg/kg/injection, schedule: Q01DX009 (ip), vehicle: saline with Tween-80.
Setting [11] is: dose: 200.0 mg/kg/injection, schedule: Q04DX003 (ip), vehicle: saline with Tween-80.
[12] abbreviates: dose: 400.0 mg/kg/injection, schedule: Q04DX003 (ip), vehicle: saline with Tween-80.
Where [13] appears, read: dose: 100.0 mg/kg/injection, schedule: Q04DX003 (ip), vehicle: Klucel (hydroxypropylcellulose) (HPC).
[14] abbreviates: dose: 200.0 mg/kg/injection, schedule: Q04DX003 (ip), vehicle: Klucel (hydroxypropylcellulose) (HPC).
[15] abbreviates: dose: 400.0 mg/kg/injection, schedule: Q04DX003 (ip), vehicle: Klucel (hydroxypropylcellulose) (HPC).
[16] abbreviates: dose: 50.0 mg/kg/injection, schedule: Q01DX001 (ip), vehicle: carboxymethylcellulose (CMC).
The mark [17] stands for this setting: dose: 100.0 mg/kg/injection, schedule: Q01DX001 (ip), vehicle: carboxymethylcellulose (CMC).
The mark [18] stands for this setting: dose: 200.0 mg/kg/injection, schedule: Q01DX001 (ip), vehicle: carboxymethylcellulose (CMC).
Where [19] appears, read: dose: 400.0 mg/kg/injection, schedule: Q01DX009 (ip), vehicle: saline with Tween-80.

As to `CCOC(=O)C1=C(O)c2ccccc2C1c1ccccc1` (configuration not stated), the T/C was 93 % of control under setting [1], 91 % of control under setting [2] and 93 % of control under setting [3].

With `Nc1ncc(CSCc2ccccc2)c(-c2ccccc2)n1`, the T/C was 100 % of control under setting [4], 96 % of control under setting [5] and 96 % of control under setting [6].

On to `Cn1c(NN)cc(=O)n(C)c1=O`, for which the T/C runs as follows: (dose: 75.0 mg/kg/injection, schedule: Q04DX003 (ip), vehicle: saline) 107 % of control; (dose: 150.0 mg/kg/injection, schedule: Q04DX003 (ip), vehicle: saline) 94 % of control; (dose: 300.0 mg/kg/injection, schedule: Q04DX003 (ip), vehicle: saline) 104 % of control.

`O=NN(CCCl)C(=O)NC1CCSCC1`: the T/C is 104 % of control (dose: 0.5 mg/kg/injection, schedule: Q01DX001 (ip), vehicle: carboxymethylcellulose (CMC)); 104 % of control (dose: 1.0 mg/kg/injection, schedule: Q01DX001 (ip), vehicle: carboxymethylcellulose (CMC)); 179 % of control (dose: 4.0 mg/kg/injection, schedule: Q01DX001 (ip), vehicle: carboxymethylcellulose (CMC)); 226 % of control under setting [7]; 203 % of control and 277 % of control (dose: 6.0 mg/kg/injection, schedule: Q01DX001 (ip), vehicle: carboxymethylcellulose (CMC)); 290 % of control and 319 % of control and 322 % of control (dose: 8.0 mg/kg/injection, schedule: Q01DX001 (ip), vehicle: carboxymethylcellulose (CMC)). Further, the T/C was 312 % of control (dose: 9.0 mg/kg/injection, schedule: Q01DX001 (ip), vehicle: carboxymethylcellulose (CMC)); 319 % of control and 322 % of control (dose: 12.0 mg/kg/injection, schedule: Q01DX001 (ip), vehicle: carboxymethylcellulose (CMC)); 312 % of control (dose: 14.0 mg/kg/injection, schedule: Q01DX001 (ip), vehicle: carboxymethylcellulose (CMC)); 234 % of control (dose: 16.0 mg/kg/injection, schedule: Q01DX001 (ip), vehicle: carboxymethylcellulose (CMC)); 158 % of control (dose: 18.0 mg/kg/injection, schedule: Q01DX001 (ip), vehicle: carboxymethylcellulose (CMC)); 122 % of control (dose: 21.0 mg/kg/injection, schedule: Q01DX001 (ip), vehicle: carboxymethylcellulose (CMC)). Where the note is “dose: 24.0 mg/kg/injection, schedule: Q01DX001 (ip), vehicle: carboxymethylcellulose (CMC)”, the T/C is 90 % of control.

On to `Cc1cc(OC(=O)Nc2ccccc2)ccc1Cl`, for which the T/C reads like this: (dose: 100.0 mg/kg/injection, schedule: Q04DX002 (ip), vehicle: saline + alcohol) 100 % of control; (dose: 200.0 mg/kg/injection, schedule: Q04DX002 (ip), vehicle: saline + alcohol) 100 % of control; (dose: 400.0 mg/kg/injection, schedule: Q04DX002 (ip), vehicle: saline + alcohol) 96 % of control.

As to `CCOC1=C(NC(C)=O)C(=O)c2ccccc2C1=O`, the T/C (dose: 75.0 mg/kg/injection, schedule: Q01DX001 (ip), vehicle: other) is 100 % of control.

With `CNC1(Cc2ccc(F)cc2)CCC1`, the T/C (dose: 100.0 mg/kg/injection, schedule: Q01DX009 (ip), vehicle: saline) was 100 % of control.

With `N#Cc1ccccc1CNc1ccccc1`, the T/C is 94 % of control (dose: 100.0 mg/kg/injection, schedule: Q01DX001 (ip), vehicle: Klucel (hydroxypropylcellulose) (HPC)); 96 % of control (dose: 200.0 mg/kg/injection, schedule: Q01DX001 (ip), vehicle: Klucel (hydroxypropylcellulose) (HPC)); 96 % of control (dose: 400.0 mg/kg/injection, schedule: Q01DX001 (ip), vehicle: Klucel (hydroxypropylcellulose) (HPC)).

With `O=C(N/N=C/c1[nH]c(=S)[nH]c(=O)c1Cc1ccc(Cl)cc1)c1ccccc1`, the T/C reads like this: (dose: 100.0 mg/kg/injection, schedule: Q01DX001 (ip), vehicle: saline with Tween-80) 96 % of control; (dose: 200.0 mg/kg/injection, schedule: Q01DX001 (ip), vehicle: saline with Tween-80) 92 % of control; (dose: 400.0 mg/kg/injection, schedule: Q01DX001 (ip), vehicle: saline with Tween-80) 123 % of control.

`CC1CCCC(CN=Cc2cc([N+](=O)[O-])ccc2O)[N-]1.CC1CCCC(CN=Cc2cc([N+](=O)[O-])ccc2O)[N-]1.[Ni+2]` (configuration not stated): the T/C under setting [8] was 86 % of control; the T/C under setting [9] was 95 % of control; the T/C under setting [10] is 86 % of control; the T/C under setting [11] was 95 % of control; the T/C under setting [12] was 86 % of control.

As to `CCCCCCCCCCCCCCCCCCNC(=O)Nc1ccc(C(C)C)cc1`, the T/C runs as follows: under setting [1], 95 % of control; under setting [13], 89 % of control; under setting [2], 92 % of control; under setting [14], 89 % of control; under setting [3], 92 % of control.

On to `CCOC(=O)CCC(NC(=O)c1ccc(NC)c([N+](=O)[O-])c1)C(=O)OCC` (configuration not stated), for which the T/C by setting is: under setting [13], 98 % of control; under setting [14], 100 % of control; under setting [15], 96 % of control.

Take `C[CH2][Pb]([CH2]C)([CH2]C)[O]C(C)=O`: the T/C (dose: 0.62 mg/kg/injection, schedule: Q01DX009 (ip), vehicle: Klucel (hydroxypropylcellulose) (HPC)) is 96 % of control; the T/C (dose: 1.25 mg/kg/injection, schedule: Q01DX009 (ip), vehicle: Klucel (hydroxypropylcellulose) (HPC)) is 102 % of control; the T/C (dose: 2.5 mg/kg/injection, schedule: Q01DX009 (ip), vehicle: Klucel (hydroxypropylcellulose) (HPC)) was 93 % of control and 94 % of control; the T/C under setting [7] was 100 % of control; the T/C (dose: 5.0 mg/kg/injection, schedule: Q04DX003 (ip), vehicle: Klucel (hydroxypropylcellulose) (HPC)) was 90 % of control; the T/C (dose: 10.0 mg/kg/injection, schedule: Q01DX001 (ip), vehicle: carboxymethylcellulose (CMC)) is 103 % of control. The T/C (dose: 10.0 mg/kg/injection, schedule: Q04DX003 (ip), vehicle: Klucel (hydroxypropylcellulose) (HPC)) was 95 % of control.

As to `NC(=O)C1(Nc2ccc(-c3ccc(NC4(C(N)=O)CCCC4)cc3)cc2)CCCC1`, the T/C was 95 % of control under setting [16], 90 % of control under setting [17] and 93 % of control under setting [18].

As to `CCN1C(c2ccccc2)C1c1ccccc1` (configuration not stated), the T/C was 101 % of control under setting [13], 102 % of control under setting [14] and 101 % of control under setting [15].

Consider `[N-]=[N+]=c1c(=O)c2ccccc2c1=O`, for which the T/C under setting [8] is 103 % of control, the T/C under setting [10] is 97 % of control and the T/C under setting [19] is 96 % of control.

As to `COc1ccc(C=NC(C)(C)CO)c(OC)c1`, the T/C is 96 % of control (dose: 75.0 mg/kg/injection, schedule: Q01DX001 (ip), vehicle: saline) and 101 % of control (dose: 150.0 mg/kg/injection, schedule: Q01DX001 (ip), vehicle: saline).

On to `O=C(O/N=C(\C(=O)c1ccccc1)c1ccccc1)c1ccc(Br)cc1`, for which the T/C runs as follows: (dose: 50.0 mg/kg/injection, schedule: Q01DX009 (ip), vehicle: saline with Tween-80) 97 % of control; under setting [8], 92 % of control; under setting [9], 94 % of control; under setting [10], 89 % of control; under setting [11], 87 % of control.

`CC(=O)Nc1ccc(NC(=O)c2ccccc2Cl)cc1`: the T/C by setting is: under setting [8], 93 % of control and 102 % of control; under setting [4], 105 % of control and 90 % of control; under setting [9], 98 % of control; under setting [10], 96 % of control and 97 % of control; under setting [5], 90 % of control and 91 % of control; under setting [11], 95 % of control. In addition, the T/C reads like this: under setting [19], 117 % of control and 91 % of control; under setting [6], 101 % of control and 110 % of control; under setting [12], 98 % of control.

For the molecule `COc1ccc(CN2CCCN(Cc3ccc(OC)cc3OC)C2c2cc(OC)ccc2OC)c(OC)c1`, the T/C reads like this: under setting [16], 114 % of control; under setting [17], 102 % of control; under setting [18], 102 % of control; (dose: 400.0 mg/kg/injection, schedule: Q01DX001 (ip), vehicle: carboxymethylcellulose (CMC)) 108 % of control.
